In patent US6455583B1, “Method for treating meibomian gland disease” (The University of Miami, priority 1998, dated 2002):
Values joined by “and” are separate entries in the source; they are usually repeats but may differ in a detail not shown here. Identical values can stand only once.

What was measured:
[1] = test system: patients with ocular rosacea; assay: Topical oxytetracycline ointment in patients with meibomian gland disease associated with rosacea and delayed tear clearance (Example 5); assay type: in vivo, human; design: key to Clinical Response (per patient): Excellent response, complete or almost complete relief of symptoms.; Good response, symptoms moderately, but not completed relieved
Experimental: Eleven ( 11) patients with ocular irritation symptoms due to meibomian gland disease associated with rosacea and delayed tear clearance were treated with a commercially available oxytetracycline ointment (Terak, Akorn Pharmaceuticals) as a topical administration to the ocular surface or the eyelids. Seventy-three percent (73%) of these patients had complete resolution of irritation symptoms.

pro-MMP9 = pro-MMP9 activity in supernatant of human corneal epithelial cultures (gelatin zymogram); assay type: cell-based; conditions: doxycycline 5·g/ml for 24 hours, compared to untreated cultures; FIG. 8
Experimental: FIG. 8 is a gelatin zymogram of human corneal epithelial cell supernatant: doxycycline treatment and MMP-3 activation. Lane Legend: (1) 92 kDa purified pro-MMP-9 standard (0.1 ng); (2) Corneal epithelial supernatant+50 μg/mL doxycycline; (3)Supernatant+50 μg/mL doxycycline+1.5 ng/μL MMP-3; (4) Supernatant+100 μg/mL doxycycline+1.5 ng/μL MMP-3; (5) Supernatant from cell culture pre-treated with doxycycline; (6) Supernatant from cell culture pre-treated with doxycycline+1.5 ng/μL MMP-3. Exposure of human corneal epithelial cultures to doxycycline (5·g/ml) for 24 hours decreased the level of pro-MMP9 activity in the supernatant by 70% compared to untreated cultures (FIG. 8). MMP-9 is the metalloproteinase responsible for initiating sterile corneal ulceration and it is also capable of cleaving precursor IL-1β into its mature form.

[2] = test system: patients with meibomian gland disease and delayed tear clearance; assay: Topical 0.025% doxycycline solution in patients with meibomian gland disease and delayed tear clearance (Example 6); assay type: in vivo, human
Source text: Tetracyclines and chemically modified tetracyclines for topical administration can be added to buffered and electrolyte balanced aqueous solutions, buffered and electrolyte balanced aqueous solutions with a lubricating polymer, mineral oil or petrolatum-based ointment, other oils, liposomes, cylcodextrins, sustained release polymers or gels in a range from 0.001 to 3% (weight per volume or weight per weight). These preparations can be administered to the preocular tear film or onto the eyelid skin or lid margin 1 to 6 times per day for a period up to the lifetime of the patient. For example, an eye drop solution comprising doxycycline as an active ingredient was prepared by dissolving pharmaceutical grade doxycycline hydrochloride powder in an electrolyte-balanced salt solution (BSS™, Alcon, Ft. Worth, Tex.) to a final concentration of 0.025%.
The solution was prepared as described herein.

IL-1RA = IL-1RA release by human corneal epithelial cell cultures; assay type: cell-based; conditions: 24 h, FIG. 7
Experimental: Media=negative control; LPS=cultures treated with lipopolysaccharide for 24 h; Doxy=cultures treated with doxycycline (5 μg/ml) for 24 h; CMT 3=cultures treated with chemically modified tetracycline CMT 3 (1 μg/ml) for 24 hr; Doxy+LPS=cultures treated with LPS and doxycycline (5 μg/ml) for 24 h; CMT 3+LPS=cultures treated with LPS and chemically modified tetracycline CMT 3 (1 μg/ml) for 24 hr.
IL-1RA has an anti-inflammatory effect by competing with the pro-inflammatory forms of IL-1 (IL-1α and IL-1β) for the type 1 receptor. […] Furthermore, the concentration of IL-1RA in corneal epithelial cultures stimulated with LPS and treated with either doxycycline or CMT-3 was greater than cultures exposed to LPS alone (FIG. 7). These findings indicate tetracyclines are anti-inflammatory due to their ability to stimulate IL-1RA release by the human corneal epithelium.

Structure (SMILES): CN(C)[C@@H]1C(O)=C(C(N)=O)C(=O)[C@@]2(O)C(O)=C3C(=O)c4c(O)cccc4[C@@](C)(O)[C@H]3[C@H](O)[C@@H]12 [oxytetracycline]
- patients with complete resolution of (irritation) symptoms ([1]; topical ointment to ocular surface or eyelids, 11 patients): 73%
- patients who experienced burning from the medication ([1]; topical ointment, 11 patients, one of which ceased treatment): Three
- Clinical Response (per patient) ([1]; topical oxytetracycline ointment, one line per patient 1-11): G (3×) and E (8×)
- Comments (tolerability, per patient) ([1]; topical oxytetracycline ointment, per patient): mild burning

Structure (SMILES): C[C@H]1c2cccc(O)c2C(=O)C2=C(O)[C@]3(O)C(=O)C(C(N)=O)=C(O)[C@@H](N(C)C)[C@@H]3[C@@H](O)[C@@H]21 [doxycycline]
- decrease of the level of pro-MMP9 activity in the supernatant (pro-MMP9): 70%
- RESPONSE (per patient) ([2]; 0.025% topical doxycycline solution, one line per patient 1-11, diagnosis MGD, DTC): no effect
- patients with complete resolution of symptoms ([2]; topical solution (doxycycline eye drops), 11 patients): more than 90%

Structure (SMILES): NC(=O)C1=C(O)C[C@@H]2C[C@@H]3Cc4cccc(O)c4C(=O)C3=C(O)[C@]2(O)C1=O [CMT-3]
- concentration of IL-1RA in LPS-stimulated cultures compared to LPS alone (IL-1RA; LPS + doxycycline 5 μg/ml or CMT 3 1 μg/ml): greater
- release of IL-1RA into the media compared to untreated cultures (IL-1RA; doxycycline 5 μg/ml or CMT 3 1 μg/ml): significantly increased
